Legend:
5/2 cells = experiment: B-cell growth assay ([3H]-thymidine uptake), lymphoblastoid 5/2 cells in serum-free HB101 medium; format: cell-based, human
Procedure: Washed 5/2 cells (5,000/well) were incubated for 72 hours in HB101 medium with the indicated amounts of retinoids. DNA synthesis was measured by [^3 H] thymidine uptake. The measurements were done in triplicate. The SDs were <15%.
In FIGS. 4B to 4D, 5/2 cells were washed twice and seeded at a concentration of 150,000 cells/ml in HB 101 medium. Triplicate samples of 100 μl of cell suspension were removed daily and pulsed for 6 hours with [^3 H] thymidine. Means are shown. The SDs were never >20%.
P3 was purified as described in the Experimental Details section. 5/2 cells (5,000/well) were incubated for 72 hours in HB101 medium and refed with the indicated amount of retinoid daily. DNA synthesis was measured by [^3 H]-thymidine uptake. P3 is bioactive down to a concentration of 10-^8 M (FIG. 8). […] This is due either to chemical instability or to a more rapid metabolic degradation of P3 by the cells.
The human EBV-transformed B-cell line 5/2 was established from the peripheral blood of a healthy donor. The cell line was grown in RPMI 1640 supplemented with 8% fetal calf serum, L-glutamine (2 mM), and antibiotics. The cell line was tested regularly for mycoplasma infections and was consistently negative.
The assay system is a modification of the assay developed by Blazar et al. (12). […] Assays were done in 96 well microtiter plates in a final volume of 200 μl/well or in 25 cm^2 tissue culture flasks. The cells in the microtiter plates were cultured for 72 hours and cell growth was determined by labeling for the last 16 hours with 0.8 μCi/well of [^3 H]thymidine (sp. act. 6.7 Ci/mmol). Growth in the culture flasks was determined in three aliquots of 100 μl taken at 24 hours intervals and cultured in the presence of 0.8 μCi of [^3 H]thymidine for an additional 6 hour period. To determine the viable cell number, nine aliquots per time point were differentially counted in a Neubauer chamber in the presence of trypan blue.

Raji = experiment: Retinol metabolism, Raji; format: in vitro ADME, human
Procedure: (§1) Legend: 2.5×10^6 cells were grown overnight in 5 ml RPMI/10% FBS. The FBS was preincubated at room temperature with 14.4 uCi [^3 H] retinol (NEN) for 4h. The cell pellet was washed twice with PBS. The retinoid were extracted according to MClean et al. 90 and separated on an analytical c18 reverse phase column according to FIG. 7. The DPM were determined using an on-line scintillation counter.

N-tera2 = experiment: Retinol metabolism, N-tera2; format: in vitro ADME, human
Procedure: as §1

Ket = experiment: Retinol metabolism, Ket; format: in vitro ADME, human
Procedure: as §1

lymph node T cells = experiment: Proliferation of anti-CD3 activated lymph node T cells; format: cell-based, BALB/c mouse
Description: Growth curves of lymph node T cells depleted of antigen-presenting cells (FIG. 17A) with and without 10^-6 M retinol at 2×10^5 and 5×10^4 cells/well. (FIG. 17B) Dose-responses elicited by different retinoids in cultures of lymph node T cells depleted of antigen-presenting cells. Also shown are the growth curves of CD4^+ (FIG. 17C) and CD8^+ T lymphocytes (FIG. 17D) in the presence of either retinol, 14HRR, human serum or in their absence.
T lymphocytes, purified as described, 5×10^4 /well, were activated with immobilized anti-CD3 antibody in ITLB medium. The indicated amounts of retinoids or human serum were added at initiation of cultures. […] 14HRR was added every 12 hours. DNA synthesis was measured by a 4 hour pulse with tritiated thymidine. SDs were ≤17%.
Mature T cells were obtained from pooled intestinal, axillary, inguinal and submandibular lymph nodes of 4 to 10-week-old BALB/c mice. To fractionate cells into CD4 and CD8 subsets and at the same time remove APC, a combination of adherence and complement lysis was used as follows:
The cell suspension in a volume of 2 ml was applied to a nylon wool column (40) (0.6 g of washed nylon fibers in the barrel of a 10 ml syringe) and incubated at 37° C. for 40 min. […] The success of the enrichment procedures was monitored cytofluorimetrically using FITC-conjugated anti-CD8 and PE-conjugated anti-CD4. […]
Cells were cultured in serum-free medium, referred to as ITLB, containing RPMI 1640 supplemented with 8×10^-7 M insulin (5 μg/ml), 7×10^-8 M transferrin (5 μg/ml), 2×10^-6 M linoleic acid, 2×10^-6 M delipidated BSA (0.12 mg/ml), 2 mM L-glutamine, 1 mM sodium pyruvate and antibiotics. […] The optimal concentration for stimulation of T cells was determined for each batch of anti-CD3 mAb and Con A. The optimal range of Con A was particularly narrow in serum-free medium (0.5-0.2 μg/ml) and varied with the cell density used. […] Cellular proliferation was determined by [^3 H] thymidine uptake (0.5 uCi/well; New England Nuclear, Boston, Mass.) after the incubation times indicated for each experiment with a 4 hour labeling pulse. […]

B lymphocytes = conditions: cited from earlier work
[1] = Reversion of 14HRR to retinal; format: in vitro ADME
[2] = system: immediate early genes in fibroblasts; experiment: Expression of immediate early genes in fibroblasts; format: cell-based; conditions: work to be published elsewhere

SMILES	growth of 5/2 cells (5/2 cells)	Ester (% of taken up retinol) (Raji; 4°) [%]	P3 (% of taken up retinol) (Raji; 4°) [%]	Total cts. (Raji; 4°)	Ester (% of taken up retinol) (Raji; 37°) [%]	P3 (% of taken up retinol) (Raji; 37°) [%]	Total cts. (Raji; 37°)	Ester (% of taken up retinol) (N-tera2) [%]	P3 (% of taken up retinol) (N-tera2) [%]	Total cts. (N-tera2)	Ester (% of taken up retinol) (Ket) [%]	P3 (% of taken up retinol) (Ket) [%]	Total cts. (Ket)	stimulation of lymph node T cells (lymph node T cells)	difference in active concentration, 14HRR vs retinal (B lymphocytes) [fold]	support of B cell proliferation / response (B lymphocytes)	active concentration (B lymphocytes; previous analyses with B lymphocytes (ref. 33)) [nM]	minimal effective concentration (5/2 cells; Homo sapiens, B-cell, 72 hours, refed daily, read-out: lowest bioactive concentration (bioactive down to)) [µM]	reversion to retinal [1]	expression of immediate early genes [2]
CC1=C(/C=C/C(C)=C/C=C/C(C)=C/CO)C(C)(C)CCC1 [retinol, all-trans retinol]	enable 5/2 cells to grow	0	0	2.5 × 10^5 cts.	14	3	4.0 × 10^5 cts.	97	0.4	13.5 × 10^5 cts.	41	3	4.6 × 10^5 cts.	–	–	–	–	–	–	–
CC1=C(/C=C/C(C)=C/C=C/C(C)=C/C(=O)O)C(C)(C)CCC1 [all-trans retinoic acid]	–	–	–	–	–	–	–	–	–	–	–	–	–	nearly inert	–	–	–	–	–	–
CC(C=CC=C(C)C(O)CO)=CC=C1C(C)=CCCC1(C)C (stereo not shown) [14HRR, 14-hydroxy-4,14-retro-retinol]	active and capable of replacing retinol	–	–	–	–	–	–	–	–	–	–	–	–	effective over the same dose range as observed for thymocytes	40	capable of supporting the proliferation of B cells in the absence of an external supply of retinal	50	0.01	does not revert to retinal	facilitates the expression of immediate early genes in fibroblasts
